Experimental data taken from patent US5730876A, “Separation and purification of low molecular weight chitosan using multi-step membrane separation process” (You; Hyang-Ja, priority 1997, dated 1998).
Where a name gives a salt, the structure may show the parent alone.

What was measured:
[1] = Solubility in water of chitosan oligosaccharides (Table 1); assay type: physicochemical
[2] = CH3OH solubility of chitosan oligosaccharides (Table 1); assay type: physicochemical; details: methanol, organic solvent or mixture
[3] = in water, read-out: Solubility (% in water)
[4] = CH3OH, 20° C., read-out: CH3OH Solubility

Row | Compound | solubility [1, 3] | solubility [2, 4] | solubility ([1]; water) | solubility [2]
1 | N[C@H]1[C@H](O[C@H]2[C@H](O)[C@@H](N)C(O)O[C@@H]2CO)O[C@H](CO)[C@@H](O)[C@@H]1O (stereo partly drawn) [Chitobiose HCl] | 1900 mg/mL | 54 mg/mL | – | –
2 | N[C@H]1[C@H](O[C@H]2[C@H](O)[C@@H](N)[C@H](O[C@H]3[C@H](O)[C@@H](N)[C@H](O[C@H]4[C@H](O)[C@@H](N)[C@H](O[C@H]5[C@H](O)[C@@H](N)[C@H](O[C@H]6[C@H](O)[C@@H](N)C(O)O[C@@H]6CO)O[C@@H]5CO)O[C@@H]4CO)O[C@@H]3CO)O[C@@H]2CO)O[C@H](CO)[C@@H](O)[C@@H]1O (stereo partly drawn) [Chitohexose HCl] | 680 mg/mL | 17 mg/mL | – | –
3 | N[C@H]1[C@H](O[C@H]2[C@H](O)[C@@H](N)[C@H](O[C@H]3[C@H](O)[C@@H](N)[C@H](O[C@H]4[C@H](O)[C@@H](N)[C@H](O[C@H]5[C@H](O)[C@@H](N)C(O)O[C@@H]5CO)O[C@@H]4CO)O[C@@H]3CO)O[C@@H]2CO)O[C@H](CO)[C@@H](O)[C@@H]1O (stereo partly drawn) [Chitopentose HCl] | 860 mg/mL | 46 mg/mL | – | –
4 | N[C@H]1[C@H](O[C@H]2[C@H](O)[C@@H](N)[C@H](O[C@H]3[C@H](O)[C@@H](N)[C@H](O[C@H]4[C@H](O)[C@@H](N)C(O)O[C@@H]4CO)O[C@@H]3CO)O[C@@H]2CO)O[C@H](CO)[C@@H](O)[C@@H]1O (stereo partly drawn) [Chitotetrose HCl] | 1580 mg/mL | 450 mg/mL | – | –
5 | N[C@H]1[C@H](O[C@H]2[C@H](O)[C@@H](N)[C@H](O[C@H]3[C@H](O)[C@@H](N)C(O)O[C@@H]3CO)O[C@@H]2CO)O[C@H](CO)[C@@H](O)[C@@H]1O (stereo partly drawn) [Chitotriose HCl] | 1770 mg/mL | 370 mg/mL | – | –
6 | Cl.N[C@H]1C(O)O[C@H](CO)[C@@H](O)[C@@H]1O (stereo partly drawn) [D-Glucosamine HCl] | – | – | 371 mg/mL | 4 mg/mL
